{"source": "patent US20140047572A1", "about": "“THROMBOPOIETIN MIMETICS FOR THE TREATMENT OF RADIATION OR CHEMICAL INDUCED BONE MARROW INJURY” (priority 2012, published 2014)", "key": {"[1]": {"test_system": "human c-mpl TM (exon 10) KI mice", "assay": "Survival of irradiated human c-mpl TM (exon 10) KI mice", "assay_type": "in vivo, mouse", "settings": "7.75 Gy TBI; for survival after TBI: male mice, 12.5, 25 or 50 mg/kg daily gavage 15 days from 24 h after irradiation, vs vehicle", "procedure": "(§1) Male Mpl^hExon10KI (human c-mpl TM knock-in mice) received 7.75 Gy TBI. Twenty-four hours after irradiation, mice were gavaged with either vehicle (0 mg/kg of eltrombopag) or one of the three doses of eltrombopag (12.5 mg/kg, 25 m g/kg, vs. 50 mg/kg daily for 15 days (n=8-10) for each experimental group.\nas §1, with “A pilot radiation study of was performed using human” for “Male Mpl^hExon10KI (human”, “KI mice before completion of backcrossing to >95% C57B1. Male human c-mpl TM (exon 10) KI mice” for “knock-in mice)”"}, "[2]": {"test_system": "Mpl^hmMPL knock-in mice", "assay": "Survival of Mpl^hmMPL knock-in mice after lethal total body irradiation", "assay_type": "in vivo, mouse", "settings": "8 Gy TBI, eltrombopag 50 mg/kg gavage daily for 15 days from 24 h after TBI, monitored 30 days", "procedure": "FIG. 3 is a Kaplan-Meier survival curve showing survival of wildtype and Mpl^hmMPL knock-in mice after exposure to a non-therapeutic dose of radiation. Male Mpl^hmMPL knock-in mice received total body irradiation (TBI) of 8 Gy. Twenty-four hours after TBI, mice were gavaged daily with eltrombopag (50 mg/kg) for 15 days. Survival of mice was monitored twice daily for 30 days. Experiments were carried out with 8 homozygous Mpl^hmMPL knock-in mice, 10 heterozygous Mpl^hmMPL knock-in mice, and 10 wild type mice.\nAll mice received 8 Gy total body irradiation and were treated with eltrombopag 24 hours after irradiation. […] It is believed that eltrombopag facilitates bone marrow recovery after radiation injury to the hematopoietic system."}, "[3]": {"test_system": "Human bone marrow mononuclear cells", "assay": "Megakaryocyte and CD41+CD34- cell differentiation in ex vivo human bone marrow culture in 3D bioreactor", "assay_type": "cell-based", "settings": "eltrombopag 8 μg/mL + IL11 vs TPO + IL11; non-irradiated control and irradiated cultures; 14 days", "procedure": "FIGS. 12A-D illustrate the effects of IL-11 only (middle/red bars) versus TPO+IL11 (left/blue bars) versus eltrombopag (8 μg/mL)+IL11 (right/green bars) on promoting megakaryocyte or CD41+CD34− cell differentiation in control and irradiated ex vivo human 3D bone marrow mononuclear cells. Cells were treated with TPO and IL11 (5 ng/mL each) for 6-7 days to induce megakaryocyte differentiation. Culture media was replaced with cultures containing IL-11 only, TPO+IL11, or eltrombopag+IL11 for the groups of control cultures (FIGS. 12A, 12C) and the group of irradiated cultures (FIGS. 12B, 12D). […]\nHuman bone marrow mononuclear cells were inoculated into the 6-well bioreactor as described above (3.5×10^6 cells in 0.6 mL). […] Cultures were screened weekly for cell viability (Trypan blue exclusion test) and for megakaryocytes production expressed as number of megakaryocytes per 1000 bone marrow cells on Wright stained cytospin slides.\nFlow cytometry analysis of CD41+CD34− cells (marker for precursor/progenitor of thrombopoiesis) was also performed for megakaryocytes and progenitors as an additional experimental end-point. […] Cells were analyzed on FACS—Calibur Flow Cytometer (Becton-Dickinson, Rockville, Md.). CD41+CD34− cell population was gated as a subpopulation of all living cells analyzed. […]"}, "[4]": {"test_system": "Mpl^hExon10 KI mice", "assay": "Eltrombopag treatment of non-irradiated Mpl^hExon10 KI mice: platelet and bone marrow cell populations", "assay_type": "in vivo, mouse", "settings": "25 mg/kg/day gavage 15 days, vs vehicle", "procedure": "Mpl^hExon10 KI mice (9 to 13 weeks old, male and female) were fed with 25 mg eltrombopag (ePag)/kg/day or vehicle by gavage for 15 days. Eltrombopag is a non-peptide mimetic of the TPO receptor. Mice were sacrificed on the 16th day for cell analysis.\nTo examine platelet levels, whole blood was obtained by heart puncture and CBC was done by Heska HemaTrue Hematology analyzer. Whole blood was also stained by anti CD41 and anti CD61 antibodies. The ratio of platelets to RBCs was measured by flow cytometry after whole blood was stained with anti-CD41 and anti-CD61 antibodies. The count of platelets was calculated by multiplying the ratio with the count of RBCs obtained by Heska HemaTrue Hematology Analyzer. The data is presented as mean±standard error of the mean.\nTo examine bone marrow cell populations, mice were sacrificed on day 16 and bone marrow cells were flushed out of the femur and tibia. RBCs were lysed by ACK buffer. The bone marrow mononuclear cells were stained with anti-CD41-PE and anti-CD42-APC. DAPI was added before flow cytometric analysis to gate away dead cells. The number of mice in each genotype is 5-7. All results are shown as the mean±standard error of the mean.\nIn a separate experiment, bone marrow mononuclear cells were stained with anti-lineages-PE (Gr-1, Mac-1, B220, Ter119, CD4 and CD8), anti-Sca-1 FITC, and anti-c-kit-APC. DAPI-pacific blue was added before flow cytometric analysis to eliminate dead cells. To analyze KSL (linage^−, c-kit^+, sca^+) population, live cells (DAPI-) are first gated, followed by gating the linage^− population and selecting c-kit^+/sca-1^+ population within the linage^− population."}, "[5]": {"test_system": "TPO receptors", "settings": "depends on His 499 in the transmembrane portion; cited from earlier work"}, "[6]": {"test_system": "TM KI homozygote mutant mice", "assay": "Blood cell recovery in irradiated human c-Mpl TM (exon 10) KI mice", "assay_type": "in vivo, mouse", "settings": "6.5 Gy TBI, 25 mg/kg/day oral gavage from 24 h post IR, vs vehicle", "procedure": "TM KI homozygote mutant mice (11 weeks old, male and female) were treated with 6.5 Gy TBI and at 24 hr post IR fed with 25 mg ePag/kg/day or vehicle by oral gavage daily for 28 days or till sacrificed. Mice were sacrificed on the day specified. Whole blood was obtained by heart puncture and CBC was done by Heska HemaTrue Hematology analyzer. Whole blood was also stained by anti CD41 and anti CD61 antibodies. BM was extracted and stained with mCD41 and mCD42d for flow cytometry analysis of […] cells (markers for precursor and progenitors for thrombopoiesis).\nThe ratio of platelets to RBCs was measured by flow cytometry after whole blood was stained with anti-CD41 and anti-CD61 antibodies. The count of platelets was calculated by multiplying the ratio with the count of RBCs obtained by Heska HemaTrue Hematology Analyzer. Week 0 is normal mice without IR and gavage."}}}
{"molecule": "CC1=NN(c2ccc(C)c(C)c2)C(=O)/C1=N\\Nc1cccc(-c2cccc(C(=O)O)c2)c1O", "note": "[eltrombopag, (Z)-3′-(2-(1-(3,4-dimethylphenyl)-3-methyl-5-oxo-1H-pyrazol-4(5H)-ylidene)hydrazinyl)-2′-hydroxybiphenyl-3-carboxylic acid]", "values": [{"measurement": "survival after TBI, dose dependence", "setting": "[1]; 25 and 50 mg/kg vs 12.5 mg/kg daily for 15 days", "value": "higher doses (25 mg/kg and 50 mg/kg) yielded better survival"}, {"measurement": "survival after TBI", "setting": "[1]", "value": "improves survival"}, {"measurement": "survival after TBI", "setting": "[1]; listed as Eltrombopag", "value": "improved the survival of mice"}, {"measurement": "survival after lethal total body irradiation, heterozygous Mpl^hmMPL knock-in mice", "setting": "[2]; heterozygous vs wild type", "value": "survived longer than the wild type"}, {"measurement": "survival after lethal total body irradiation, homozygous Mpl^hmMPL knock-in mice", "setting": "[2]; homozygous vs heterozygous", "value": "survived longer than the heterozygous transgenic mice"}, {"measurement": "CD41+CD34- cells (precursors/progenitors for thrombopoiesis)", "setting": "[3]", "value": "performed as well as TPO"}, {"measurement": "megakaryocytes (number per 1000 bone marrow cells)", "setting": "[3]", "value": "performed as well as TPO in promoting megakaryocytes"}, {"measurement": "bone marrow Lin-KSL (stem) cells", "setting": "[4]; Mpl^hExon10 KI mice", "value": "significantly increased"}, {"measurement": "bone marrow CD41+CD42+ cells", "setting": "[4]; homozygous Mpl^hExon10 KI mice, day 16", "value": "significantly increased"}, {"measurement": "platelet counts in the peripheral blood", "setting": "[4]; homozygous Mpl^hExon10 KI mice, day 16, 25 mg/kg/day", "value": "significantly increased the platelet counts"}, {"measurement": "species-specificity of TPO receptor binding", "setting": "[5]", "value": "binds to the TPO receptors of only humans and chimpanzees"}, {"measurement": "red blood cell counts", "setting": "[6]; 2 weeks post IR", "value": "an improvement"}, {"measurement": "platelet counts", "setting": "[6]; 4 and 6 weeks post IR", "value": "significant improvement"}, {"measurement": "count of bone marrow precursor/progenitor cells for thrombopoiesis", "setting": "[6]; 4 weeks post IR", "value": "significant improvement"}, {"measurement": "white blood cell counts", "setting": "[6]; 6 weeks post IR", "value": "significant improvement"}]}
